Measured values reported in US10988465B2, “CXCR4 inhibitors and uses thereof” (X4 Pharmaceuticals, Inc., priority 2016, dated 2021).

Columns and labels:
[1] = molecular target: T1, CXCR-4 transfected U87 cell line (U87.CXCR4) (Homo sapiens, UniProt P61073); experiment: Intracellular CXCL-12-induced calcium mobilization assay (FLIPR); assay type: cell-based; settings: U87.CXCR4 cells; CXCL-12 25-50 ng/mL; compound added 15 min before; read-out: IC50 CXCL-12 Ca^2+ flux U87.CXCR4+
T1 construct: expressed in transfected cells; host or cells: U87 (U87.CXCR4)
T1 sequence (P61073 whole entry): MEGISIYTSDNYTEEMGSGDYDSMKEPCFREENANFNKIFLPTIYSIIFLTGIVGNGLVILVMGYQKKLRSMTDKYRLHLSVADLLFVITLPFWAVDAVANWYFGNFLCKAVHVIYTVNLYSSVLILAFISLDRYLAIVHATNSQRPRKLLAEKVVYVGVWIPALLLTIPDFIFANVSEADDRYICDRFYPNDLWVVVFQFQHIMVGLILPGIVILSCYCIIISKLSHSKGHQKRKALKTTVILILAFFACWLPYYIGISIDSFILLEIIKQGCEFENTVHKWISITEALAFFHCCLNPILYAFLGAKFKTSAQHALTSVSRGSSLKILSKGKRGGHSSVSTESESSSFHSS
In short: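 CXCL-12 (25-50 ng/mL) was the stimulus, and the intracellular calcium rise was tracked kinetically by FLIPR at 37 °C. Cells were U87.CXCR4 transfectants pre-loaded 45 min at 37 °C with 4 μM (final) Fluo-2 AM in HEPES-buffered HBSS with 0.2% BSA, pH 7.4.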

[2] = molecular target: T2, Jurkat cells expressing CXCR4 (Homo sapiens, UniProt P61073); experiment: Chemokine (CXCL12-AF647) binding inhibition assay; settings: CXCL12-AF647 25 ng/mL, read-out: IC50 CXCL-12 binding Jurkat
T2 construct: endogenous in cells; host or cells: Jurkat
T2 sequence (P61073 whole entry): as above
In short: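 Cells in HBSS, 20 mM HEPES, 0.2% BSA, pH 7.4, preincubated 15 min at room temperature with compound, then 25 ng/mL CXCL12-AF647 for 30 min. After washing and paraformaldehyde fixation, bound ligand read by flow cytometry; percent inhibition calculated from MFI relative to unlabeled and ligand-only controls.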

in vitro = settings: human, Caco-2, pH 7.4
In short: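 Bidirectional permeability across Caco-2 monolayers in HBSS (pH 7.4) at a test concentration of 10 μM, incubated 0 and 90 min at 37° C (n=2). Monolayer integrity was assessed by TEER and Lucifer yellow. Papp was derived from LC-MS/MS-measured concentrations.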

Row | SMILES | IC50 [1] [nM] | IC50 [2] [nM] | Papp A→B at 90 min, 10 μM (in vitro) [×10⁻⁶ cm/s] | Papp B→A at 90 min, 10 μM (in vitro) [×10⁻⁶ cm/s] | efflux ratio at 90 min, 10 μM (in vitro)
1 | Cc1cc(F)cnc1[C@@H]1CCC[C@H](c2nc3cccc(N4CCN(C)CC4)c3[nH]2)N1 [I-142] | 0.01 to 100 | 0.01 to 100 | 0.1 to 10 | 10 to 30 | 0.1 to 10
2 | Cc1cccnc1[C@@H]1CCC[C@H](c2nc3ccccc3n2CCCNC2CCOCC2)N1C [I-19, N-(3-(2-((2R,6S)-1-methyl-6-(3-methylpyridin-2-yl)piperidin-2-yl)-1H-benzo[d]imidazol-1-yl)propyl)tetrahydro-2H-pyran-4-amine] | 0.01 to 100 | 0.01 to 100 | 0.1 to 10 | 10 to 30 | 0.1 to 10
3 | Cc1cccnc1[C@@H]1CCC[C@H](c2nc3ccccc3[nH]2)N1CCc1cn2ccccc2n1 [I-164] | 0.01 to 100 | 0.01 to 100 | 0.1 to 10 | 10 to 30 | 0.1 to 10
4 | CN1CCN(c2cccc3nc([C@H]4CCC[C@@H](c5nccc6occc56)N4C)[nH]c23)CC1 [I-92] | 100 to 1000 | 0.01 to 100 | 10 to 30 | 10 to 30 | 0.1 to 10
5 | COc1cccnc1[C@@H]1CCC[C@H](c2nc3cccc(N4CCN(C)CC4)c3[nH]2)N1C [I-62] | 0.01 to 100 | 0.01 to 100 | 0.1 to 10 | 10 to 30 | 0.1 to 10
6 | CN1CCC(n2c([C@H]3CCC[C@@H](c4ncccc4Cl)N3C)nc3ccccc32)CC1 [I-134] | 0.01 to 100 | 0.01 to 100 | 10 to 30 | 10 to 30 | 0.1 to 10
7 | CN1CCN(c2cccc3nc([C@H]4CCC[C@@H](c5ncccc5Cl)N4)[nH]c23)CC12CC2 [I-133] | ≥ 1000 | 0.01 to 100 | 10 to 30 | 10 to 30 | 0.1 to 10
8 | Cc1cccnc1[C@@H]1CCC[C@H](c2nc3cccc(N4CCN(C)CC4)c3[nH]2)N1C (single isomer, unassigned) [I-3a] | 0.01 to 100 | 0.01 to 100 | 0.1 to 10 | 0.1 to 10 | 
9 | CN1CCN(c2cccc3nc([C@H]4CCC[C@@H](c5ncccc5C(F)(F)F)N4C)[nH]c23)CC1 (relative stereo) [I-58] | ≥ 1000 | 0.01 to 100 | 10 to 30 | 10 to 30 | 0.1 to 10
10 | CN1CCN(c2cccc3nc([C@H]4CCC[C@@H](c5nccc6c5OCCO6)N4C)[nH]c23)CC1 [I-65] | 100 to 1000 | 100 to 1000 | 10 to 30 | 10 to 30 | 0.1 to 10
11 | Cc1cccnc1[C@@H]1CCC[C@H](c2nc3cccc(N4CCNC(C)(C)C4)c3[nH]2)N1C [I-52] | 0.01 to 100 | 0.01 to 100 | 0.1 to 10 | 10 to 30 | 10 to 30
12 | Cc1cccnc1[C@@H]1CCC[C@H](c2nccn2C2CCN(C3CC3)CC2)N1C [I-174] | 100 to 1000 | 0.01 to 100 | 10 to 30 | 10 to 30 | 0.1 to 10
13 | Cc1cccnc1[C@@H]1CCC[C@H](c2nc3cccc(N4CCNCC4)c3[nH]2)N1C [I-136] | 0.01 to 100 | 0.01 to 100 | 0.1 to 10 | 10 to 30 | 10 to 30
14 | Cc1cccnc1[C@@H]1CCC[C@H](c2nc3cccc(N4CC5CCC(C4)N5C)c3[nH]2)N1 [I-118] | 0.01 to 100 | 0.01 to 100 | 0.1 to 10 | > 30 | 10 to 30
15 | Cc1cccnc1[C@@H]1CCC[C@H](c2ncc[nH]2)N1Cc1ccccc1-n1cccn1 [I-166] | ≥ 1000 | 100 to 1000 | 10 to 30 | 10 to 30 | 0.1 to 10
16 | Cc1cccnc1[C@@H]1CCC[C@H](c2nccn2CC2CCN(C)CC2)N1 [I-175] | 100 to 1000 | 0.01 to 100 | 0.1 to 10 | 10 to 30 | 10 to 30
17 | Cc1cccnc1[C@@H]1CCC[C@H](c2nc3ccccc3n2CCCN2CCN(C)CC2)N1C [I-17, 2-((2R,6S)-1-methyl-6-(3-methylpyridin-2-yl)piperidin-2-yl)-1-(3-(4-methylpiperazin-1-yl)propyl)-1H-benzo[d]imidazole] | 0.01 to 100 | 0.01 to 100 | 0.1 to 10 | 0.1 to 10 | 0.1 to 10
18 | Cc1cccnc1[C@@H]1CCC[C@H](c2nc3cccc(C4CCN(C)CC4)c3[nH]2)N1C [I-34] | 0.01 to 100 | 0.01 to 100 | 0.1 to 10 | 10 to 30 | 0.1 to 10
19 | CN(C)C1CCN(c2cccc3nc([C@H]4CCC[C@@H](c5ncccc5Cl)N4C)[nH]c23)CC1 [I-97] | ≥ 1000 | 0.01 to 100 | 10 to 30 | 10 to 30 | 0.1 to 10
20 | Cc1ccnc([C@@H]2CCC[C@H](c3nc4cccc(N5CCN(C)CC5)c4[nH]3)N2C)c1C [I-115] | 100 to 1000 | 0.01 to 100 | 0.1 to 10 | 0.1 to 10 | 0.1 to 10
21 | Cc1cccnc1[C@@H]1CCC[C@H](c2nc3ccccc3n2CC2CCN(CC(F)(F)F)CC2)N1C [I-24, 2-((2R,6S)-1-methyl-6-(3-methylpyridin-2-yl)piperidin-2-yl)-1-((1-(2,2,2-trifluoroethyl)piperidin-4-yl)methyl)-1H-benzo[d]imidazole] | ≥ 1000 | 100 to 1000 | 10 to 30 | 10 to 30 | 0.1 to 10
22 | Cc1cccnc1[C@@H]1CCC[C@H](c2nc3cccc(N4CCN5CCCC5C4)c3[nH]2)N1 (stereo partly drawn) [I-126] | 0.01 to 100 | 0.01 to 100 | 0.1 to 10 | 10 to 30 | 0.1 to 10
23 | Cc1cccnc1[C@@H]1CCC[C@H](c2nc3ccccc3[nH]2)N1CCCCN [I-1, 4-((2R,6S)-2-(1H-benzo[d]imidazol-2-yl)-6-(3-methylpyridin-2-yl)piperidin-1-yl)butan-1-amine] | 100 to 1000 | 0.01 to 100 | 0.1 to 10 | 0.1 to 10 | 10 to 30
24 | Cc1cccnc1[C@@H]1C[C@H](O)C[C@H](c2nc3cccc(N4CCN(C)CC4)c3[nH]2)N1C [I-100] | 0.01 to 100 | 0.01 to 100 | 0.1 to 10 | 10 to 30 | > 30
25 | Cc1cc(F)cnc1[C@@H]1CCC[C@H](c2nccn2C2CCN(C)CC2)N1 [I-173] | ≥ 1000 | ≥ 1000 | 10 to 30 | 10 to 30 | 0.1 to 10
26 | Cc1cccnc1[C@@H]1CCC[C@H](c2nc3ccccc3n2CC2CCNCC2)N1C [I-14, 2-((2R,6S)-1-methyl-6-(3-methylpyridin-2-yl)piperidin-2-yl)-1-(piperidin-4-ylmethyl)-1H-benzo[d]imidazole] | 0.01 to 100 | 0.01 to 100 | 0.1 to 10 | 10 to 30 | > 30
